Measurements published in US20200360531A1, “ANTIBODY DRUG CONJUGATES (ADCS) WITH NAMPT INHIBITORS” (Bayer Aktiengesellschaft, priority 2018, published 2020).
Where “and” joins values, the source holds several entries; their conditions need not be identical. Equal values may be shown once. Read-outs that look alike come from different tables or passages of the source.

Assays:
THP-1 = test: Cell proliferation assay, Cell Titer Glo (CTG) method, THP-1; format: cell-based, human; details: Table 2, 72 h
Procedure: (§1) Cell Proliferation Assay for Nampt-ADCs and Nampt-SMOLs
(§2) Cell Titer Glo (CTG) Method
(§3) To this end, 75 μL per well CTG solution (Promega, catalog #G755B and G756B) was added to cells in sister plates, incubated for 10 min, and luminescence was measured on a VICTOR V instrument (Perkin Elmer). After incubation for either 72 or 96 hrs (Table 1) in the presence of test compounds, 100 μl per well CTG solution was added to all test wells, incubated for 10 min and luminescence was measured on a VICTOR V instrument. […] The DRC software is a Biobook Spreadsheet that was developed by Bayer AG and Bayer Business Services on the IDBS E-Workbook Suite platform (IDBS: ID Business Solutions Ltd., Guildford, UK).

A549 C4.4a B4 = test: Cell proliferation assay, Cell Titer Glo (CTG) method, A549 C4.4a B4; format: cell-based, human
Procedure: as §1, §2, §3

U251 MG = test: Cell proliferation assay, Cell Titer Glo (CTG) method, U251 MG; format: cell-based; details: Table 2
Procedure: as §1, §2, §3

human NAMPT = biological target: T1, human NAMPT (Homo sapiens, UniProt P43490); test: NAMPT biochemical assay (hNAMPT IC50), cascade assay with NMNAT1 and NAD/NADH-Glo detection; details: Table 2; replicate values on separate lines
T1 construct: N-terminally His6-tagged recombinant full length human NAMPT; His6 (N); made in house; host or cells: E. coli
Excerpt: NAMPT Biochemical Assay (hNAMPT IC50)
Nicotinamide phosphoribosyltransferase (NAMPT) inhibitory activity of compounds of the present invention was quantified employing a cascade assay as described in the following paragraphs. The assay couples the conversion of nicotinamide (NAM) to nicotinamide mononucleotide (NMN) by NAMPT with the conversion of NMN to […] adenine dinucleotide (NAD^+) by nicotinamide mononucleotide adenylyltransferase 1 (NMNAT1) and the subsequent quantification of the generated NAD^+ by a commercial detection kit (NAD/NADH-Glo™ Assay from Promega, #G9072).
N-terminally His6-tagged recombinant full length human NAMPT and N-terminally His6-tagged recombinant full length human NMNAT1, both expressed in E. coli and purified via Ni-NTA-affinity chromatography and consecutive size exclusion chromatography, were used as enzymes.
For the assay 50 nl of a 100 fold concentrated solution of the test compound in DMSO was pipetted into a white low volume 384 well microtiter plate (Greiner Bio-One, Frickenhausen, Germany), 2.5 μl of a solution of NAMPT in aqueous NMNAT1-containing assay buffer [50 mM Tris/HCl pH 7.5, 12 mM MgCl2, 0.6 mM adenosine-tri-phosphate (ATP), 1 nM NMNAT1, 0.02% (w/v) bovine serum albumin (Sigma-Aldrich #P7906), 0.001% (v/v) Tween-20 (Sigma-Aldrich #P7949)] were added and the mixture was incubated for 15 min at 22° C. to allow pre-binding of the test compounds to the enzyme before the start of the enzyme reaction. Then the reaction was started by the addition of 2.5 μl of a solution of NAM (300 nM=>final conc. in the 5 μl assay volume is 150 nM, Sigma-Aldrich #^47865) and 5-phosphorylribose-1-pyrophosphate pentasodium salt (PRPP, 1.2 μM=>final conc. in the 5 μl assay volume is 0.6 μM, Sigma-Aldrich P8296) in assay buffer and the resulting mixture was incubated for a reaction time of 20 min at 22° C. The concentration of NAMPT was adjusted depending of the activity of the enzyme lot and was chosen appropriate to have the assay in the linear range, typical final concentration in the 5 μl assay volume was 0.16 nM.
The resulting mixture was incubated 2 h at 22° C. to allow a steady-state of the detection system. Subsequently the generated luminescence was measured in a suitable luminescence reader, e.g. a Viewlux™ (Perkin-Elmer), and taken as a measure for the generated NAD^+.

MDA-MB-453 = test: Cell proliferation assay, Cell Titer Glo (CTG) method, MDA-MB-453; format: cell-based
Procedure: as §1, §2, §3

[1] = test system: murine renal cell carcinoma model RENCA; details: cited from earlier work
[2] = test system: human breast and lung cancer cell line-derived in vivo models; details: in vitro and in vivo; cited from earlier work
[3] = Homo sapiens, A549, 72 h, Table 2, read-out: A549 C4.4a B4 72 h IC50
[4] = Homo sapiens, MDA-MB-453, 72 h, Table 2, read-out: MDA-MB-453 72 h IC50

T1 sequence (P43490 whole entry): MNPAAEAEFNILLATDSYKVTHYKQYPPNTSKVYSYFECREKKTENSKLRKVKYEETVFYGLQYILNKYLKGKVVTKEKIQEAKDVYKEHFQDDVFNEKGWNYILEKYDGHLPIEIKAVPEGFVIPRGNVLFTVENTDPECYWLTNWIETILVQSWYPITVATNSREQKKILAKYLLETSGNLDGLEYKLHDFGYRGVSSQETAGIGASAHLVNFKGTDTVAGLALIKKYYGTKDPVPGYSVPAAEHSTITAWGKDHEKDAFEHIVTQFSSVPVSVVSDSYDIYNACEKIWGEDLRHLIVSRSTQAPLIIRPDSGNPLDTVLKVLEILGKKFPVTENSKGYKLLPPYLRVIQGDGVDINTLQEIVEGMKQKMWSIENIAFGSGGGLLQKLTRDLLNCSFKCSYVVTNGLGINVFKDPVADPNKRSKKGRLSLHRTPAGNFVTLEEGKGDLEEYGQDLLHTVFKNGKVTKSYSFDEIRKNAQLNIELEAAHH

Row | Compound | IC50 (THP-1; Homo sapiens, THP-1) [nM] | IC50 (A549 C4.4a B4; [3]) [nM] | IC50 (U251 MG; Homo sapiens, U-251, 72 h) [nM] | IC50 (human NAMPT) | IC50 (MDA-MB-453; [4]) [nM] | IC50 (U251 MG; 72 h) [nM] | IC50 (THP-1) [nM] | IC50 (A549 C4.4a B4; Table 2, 72 h, read-out: A549 C4.4a B4 72 h IC50) [nM] | IC50 (MDA-MB-453; Table 2, 72 h, read-out: MDA-MB-453 72 h IC50) [nM] | In vivo efficacy [1] | cytotoxic effects [2]
1 | NCCCCN1N=C(c2ccc(NC(=O)N3Cc4ccncc4C3)cc2)C[C@](c2cccc3ncccc23)(C(F)(F)F)C1=O [Example 13, N-{4-[(5R)-1-(4-aminobutyl)-6-oxo-5-(quinolin-5-yl)-5-(trifluoromethyl)-1,4,5,6-tetrahydropyridazin-3-yl]phenyl}-1,3-dihydro-2H-pyrrolo[3,4-c]pyridine-2-carboxamide] | 0.447 | 227 | 43.7 | 2.77 nM and 3.2 nM | 0.436 |  |  |  |  |  | 
2 | Cc1nnc(-c2cc(-c3ccc(NC(=O)N4Cc5ccncc5C4)cc3)nn(CCCCN)c2=O)o1 [Example 8, N-{4-[1-(4-Aminobutyl)-5-(5-methyl-1,3,4-oxadiazol-2-yl)-6-oxo-1,6-dihydropyridazin-3-yl]phenyl}-1,3-dihydro-2H-pyrrolo[3,4-c]pyridine-2-carboxamide] | 0.979 | 93.5 | 28.1 | 1.04 nM and 1.32 nM | 2.66 |  |  |  |  |  | 
3 | 2 or 3-{[(2R)-2-Amino-2-carboxyethyl]sulfanyl}-4-{[2-({6-[3-{4-[(1,3-dihydro-2H-pyrrolo[3,4-c]pyridine-2-carbonyl)amino]phenyl}-5-(5-methyl-1,3,4-oxadiazol-2-yl)-6-oxopyridazin-1(6H)-yl]hexyl}amino)-2-oxoethyl]amino}-4-oxobutanoic Acid [Example 34M] |  |  |  | 1.17 nM and 1.18 nM |  | > 300 | > 300 | > 300 | 91.2 |  | 
4 | O=C(/C=C/c1cccnc1)NCCCCC1CCN(C(=O)c2ccccc2)CC1 [daporinad, (E)-N-[4-(I-benzoylpiperidin-4-yl)butyl]-3-(pyridine-3-yl)-acrylamide] |  |  |  |  |  |  |  |  |  | In vivo efficacy of daporinad was shown | 
5 | Cc1nnc(-c2cc(-c3ccc(NC(=O)N4Cc5ccncc5C4)cc3)n[nH]c2=O)o1 [Example 9, N-{4-[5-(5-methyl-1,3,4-oxadiazol-2-yl)-6-oxo-1,6-dihydropyridazin-3-yl]phenyl}-1,3-dihydro-2H-pyrrolo[3,4-c]pyridine-2-carboxamide] | 1.21 | 97.2 | 4.34 | 0.457 nM and 0.717 nM | 0.0357 |  |  |  |  |  | 
6 | Cc1nnc(C2CC(c3ccc(NC(=O)N4Cc5ccncc5C4)cc3)=NNC2=O)o1 (centres unmarked) [Example 7, N-{4-[5-(5-Methyl-1,3,4-oxadiazol-2-yl)-6-oxo-1,4,5,6-tetrahydropyridazin-3-yl]phenyl}-1,3-dihydro-2H-pyrrolo[3,4-c]pyridine-2-carboxamide] | 0.995 | > 300 | 8.95 | 1.02 nM and 1.2 nM | 0.299 |  |  |  |  |  | 
7 | N#CN=C(NCCCCCCOc1ccc(Cl)cc1)Nc1ccncc1 [CHS-828, N-[6-(4-chlorophenoxy)hexyl]-N′-cyano-N″-4-pyridinyl-guanidine] |  |  |  |  |  |  |  |  |  |  | highly cytotoxic effects

More lines, main results first:

Row | IC50 (THP-1; Homo sapiens, THP-1) [nM] | IC50 (A549 C4.4a B4; [3]) [nM] | IC50 (U251 MG; Homo sapiens, U-251, 72 h) [nM] | IC50 (human NAMPT) | IC50 (MDA-MB-453; [4]) [nM] | IC50 (U251 MG; 72 h) [nM] | Compound | IC50 (THP-1) [nM] | IC50 (A549 C4.4a B4; Table 2, 72 h, read-out: A549 C4.4a B4 72 h IC50) [nM] | IC50 (MDA-MB-453; Table 2, 72 h, read-out: MDA-MB-453 72 h IC50) [nM] | In vivo efficacy [1] | cytotoxic effects [2]
8 | < 0.003 | 40.5 | < 0.03 | 0.393 nM and 0.47 nM | < 0.03 |  | O=C1NN=C(c2ccc(NC(=O)N3Cc4ccncc4C3)cc2)CC1c1ccc2[nH]ccc2c1 (centres unmarked) [Example 21, N-{4-[5-(1H-Indol-5-yl)-6-oxo-1,4,5,6-tetrahydropyridazin-3-yl]phenyl}-1,3-dihydro-2H-pyrrolo[3,4-c]pyridine-2-carboxamide] |  |  |  |  | 
9 | 0.0385 | 12.4 | 0.642 | 0.218 nM and 0.346 nM | < 0.03 |  | O=C1NN=C(c2ccc(NC(=O)N3Cc4ccncc4C3)cc2)CC1c1ccc2[nH]ncc2c1 (centres unmarked) [Example 17, N-{4-[5-(1H-indazol-5-yl)-6-oxo-1,4,5,6-tetrahydropyridazin-3-yl]phenyl}-1,3-dihydro-2H-pyrrolo[3,4-c]pyridine-2-carboxamide] |  |  |  |  | 
10 | ≤ 0.003 | 58.5 | < 0.03 | 0.213 nM and 0.226 nM | < 0.03 | 0.0428 | O=C(Nc1ccc(-c2cc(-c3cccc4[nH]ncc34)c(=O)[nH]n2)cc1)N1Cc2ccncc2C1 [Example 18, N-{4-[5-(1H-indazol-4-yl)-6-oxo-1,6-dihydropyridazin-3-yl]phenyl}-1,3-dihydro-2H-pyrrolo[3,4-c]pyridine-2-carboxamide] |  |  |  |  | 
11 | < 0.003 | 6.39 | < 0.03 | 0.156 nM and 0.229 nM | < 0.03 |  | O=C(Nc1ccc(-c2cc(-c3ccc4[nH]ccc4c3)c(=O)[nH]n2)cc1)N1Cc2ccncc2C1 [Example 20, N-{4-[5-(1H-indol-5-yl)-6-oxo-1,6-dihydropyridazin-3-yl]phenyl}-1,3-dihydro-2H-pyrrolo[3,4-c]pyridine-2-carboxamide] |  |  |  |  | 
12 | 0.00471 | 267 | 8.87 | 0.358 nM and 0.389 nM | 0.0943 |  | Cc1nnc(-c2cc(-c3ccc(NC(=O)N4Cc5ccncc5C4)cc3)nn(CCCCCCN)c2=O)o1 [Example 10, N-{4-[1-(6-Aminohexyl)-5-(5-methyl-1,3,4-oxadiazol-2-yl)-6-oxo-1,6-dihydropyridazin-3-yl]phenyl}-1,3-dihydro-2H-pyrrolo[3,4-c]pyridine-2-carboxamide] |  |  |  |  | 
13 | 0.00996 | 4.92 | < 0.03 | 0.241 nM and 0.295 nM | < 0.03 |  | O=C(Nc1ccc(-c2cc(-c3ccc4cccnc4c3)c(=O)[nH]n2)cc1)N1Cc2ccncc2C1 [Example 24, N-{4-[6-oxo-5-(quinolin-7-yl)-1,6-dihydropyridazin-3-yl]phenyl}-1,3-dihydro-2H-pyrrolo[3,4-c]pyridine-2-carboxamide] |  |  |  |  | 
14 | < 0.003 | 23.2 | 0.0411 | 0.323 nM and 0.326 nM | < 0.03 | 0.057 | O=C(Nc1ccc(-c2cc(-c3ccc4[nH]ncc4c3)c(=O)[nH]n2)cc1)N1Cc2ccncc2C1 [Example 16, N-{4-[5-(1H-indazol-5-yl)-6-oxo-1,6-dihydropyridazin-3-yl]phenyl}-1,3-dihydro-2H-pyrrolo[3,4-c]pyridine-2-carboxamide-hydrogen chloride] |  |  |  |  | 
15 | 0.0227 | 57.1 | 0.428 | 0.803 nM and 1.15 nM | < 0.03 |  | NCCCCn1nc(-c2ccc(NC(=O)N3Cc4ccncc4C3)cc2)cc(-c2ccc3cccnc3c2)c1=O [Example 25, N-{4-[1-(4-Aminobutyl)-6-oxo-5-(quinolin-7-yl)-1,6-dihydropyridazin-3-yl]phenyl}-1,3-dihydro-2H-pyrrolo[3,4-c]pyridine-2-carboxamide] |  |  |  |  | 
16 | < 0.003 | 11 | < 0.03 | 0.267 nM and 0.288 nM | < 0.03 |  | NCCCCCCn1nc(-c2ccc(NC(=O)N3Cc4ccncc4C3)cc2)cc(-c2cccc3ncccc23)c1=O [Example 6, N-{4-[1-(6-Aminohexyl)-6-oxo-5-(quinolin-5-yl)-1,6-dihydropyridazin-3-yl]phenyl}-1,3-dihydro-2H-pyrrolo[3,4-c]pyridine-2-carboxamide] |  |  |  |  | 
